Laboratory results published in patent US20210323949A1, “COMPOUNDS AND METHODS FOR INHIBITION OF MULTIPLE MYELOMA” (FLORIDA ATLANTIC UNIVERSITY BOARD OF TRUSTEES, priority 2018, published 2021).

Columns and labels:
[1] = tested on: multiple myeloma cell lines; assay: Viability/proliferation of multiple myeloma cell lines; assay type: cell-based; conditions: over 48 h
[2] = tested on: 5TGM1 luciferase expressing multiple myeloma cells; assay: 5TGM1 multiple myeloma mouse model; assay type: in vivo, Mice (C57BL/6 KalwRij)
Protocol: FIG. 5A is a set of images and FIG. 5B and FIG. 5C are graphs showing the efficacy of RF-036 (MMP-13i) for the treatment of multiple myeloma. FIG. 5A, 5B: Mice (C57BL/6 KalwRij) were inoculated with 5TGM1 luciferase expressing multiple myeloma cells (1×10^6) and after 10 days randomized into vehicle (n=7) or MMP-13i (n=6) groups. Mice were treated daily with RF-036 at 2 mg/kg via intraperitoneal injection. Bioluminescence (FIG. 5A) was quantitated every 3-4 days (FIG. 5B). […] Asterisks denote statistical significance.
FIG. 7 is a Kaplan-Meier curve of overall survival time of 5TGM1 multiple myeloma bearing mice treated with RF-036 (MMP-13i) (n=6; 2 mg/kg daily) or vehicle control (n=7). The median survival time for the RF-036 group was 46 days compared to 41 for the vehicle control group.
The overall survival time of 5TGM1 multiple myeloma bearing mice treated with RF-036 (MMP-13i) (n=6; 2 mg/kg daily) was compared to vehicle control (n=7) (FIG. 7). The median survival time for the RF-036 group was 46 days compared to 41 for the vehicle control group.

[3] = tested on: bone marrow-derived macrophages (BMMs); conditions: bone marrow co-cultures/BMMs with M-CSF and RANKL, counted after 5 days
[4] = tested on: MSCs and monocytic cells (RAW 267); assay: Proliferation of stromal cells of the bone microenvironment
mature osteoclasts = assay: Inhibitor added to mature osteoclasts, TRAP-positive osteoclasts counted; conditions: TRAP positive osteoclasts counted after 5 days

Q: CNC(=O)[C@@H](NC(=O)c1ccc(-c2ccc(CSc3nc4c(c(=O)[nH]3)CCC4)c(F)c2)o1)C(C)C [RF-036] was tested. Which “impact on viability of multiple myeloma cell lines” value [1] did it give?
A: Its value is “up to 50%”.

Q: What about the “IgG2b in serum (readout for tumor burden)” value ([2]; 2 mg/kg daily i.p., day 28, vs vehicle) of the same compound?
A: The value was “significant differences between the vehicle and RF-036 groups”.

Q: And the “growth of multiple myeloma in vivo (bioluminescence)” value ([2]; 2 mg/kg daily, intraperitoneal injection)?
A: The value was “significantly reduces the growth of multiple myeloma”.

Q: And the median survival time ([2]; 5TGM1 bearing mice, 2 mg/kg daily, n=6)?
A: Its median survival time is 46 days.

Q: And the overall survival ([2]; multiple myeloma bearing mice, 2 mg/kg daily)?
A: The overall survival was “increases overall survival”.

Q: What about the “osteoclast formation (number of TRAP-positive osteoclasts per well)” value [3] of the same compound?
A: Its value is “significantly mitigated osteoclast formation”.

Q: What about the “effects on stromal cells (MSCs and monocytes)” value [4] of the same compound?
A: The value was “minimal effects”.

Q: What about the “cell viability of mature osteoclasts” value (mature osteoclasts) of the same compound?
A: The value was “no effect on cell viability”.
